Among the test systems are HS 578T breast; DU-145 prostate; BT-549 breast; NCI/ADR-RES ovarian; T-47D breast; MDA-MB-231 breast; LXFL 529 NSCLC; M19-MEL melanoma; HOP-18 NSCLC.
Experiment in all cases: DTP human tumour cell line panel, 48 h

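A five-concentration, 48-hour dose response in 96-well plates underlies each endpoint, interpolated linearly between surrounding concentrations. GI50 marks 50% less growth. TGI is the concentration that stops growth completely.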

Broadly, the GI50 is the concentration at which growth is held to half of that of the control. What is called TGI is the concentration giving total growth inhibition. Higher therefore signals less potent growth arrest. In the case of `CC/C=C\C[C@H](O)C/C=C1/C(=O)C=C[C@@H]1C/C=C\CCCC(N)=O`, the GI50 in the test on HS 578T breast was 5.29 µM; with DU-145 prostate, 2.5 µM; with BT-549 breast, 2.17 µM; in the test with NCI/ADR-RES ovarian, 2.81 µM; in the test on T-47D breast, 3.14 µM; in the test with MDA-MB-231 breast, 4.2 µM. In addition, the TGI in the test with HS 578T breast came to 32.4 µM; in the test on DU-145 prostate it was 11 µM; in the test with BT-549 breast it was 5.54 µM; in the test on NCI/ADR-RES ovarian, 12.3 µM; in the test with T-47D breast, 15.3 µM; with MDA-MB-231 breast, 15.2 µM.

For the compound `Cn1c(=O)c2c(nc3n2CCC(=O)N3)n(C)c1=O`, the total growth inhibition concentration (TGI) with LXFL 529 NSCLC and in the test on M19-MEL melanoma was above 100 µM throughout.

For the compound `NC(N)=NNC(=O)C(=O)O`, the total growth inhibition concentration (TGI) with HS 578T breast, with DU-145 prostate, in the test with BT-549 breast, with NCI/ADR-RES ovarian, in the test with T-47D breast and in the test on MDA-MB-231 breast was above 100 µM each time.

Turning to `CCOC(=O)/C=C/c1ccc(C(=O)OCC)[nH]1`, the GI50 was 2.43 µM in the test with HS 578T breast; 3.41 µM in the test on DU-145 prostate; 6.76 µM in the test with BT-549 breast; 3.3 µM in the test on NCI/ADR-RES ovarian; 6.32 µM with T-47D breast; 13.7 µM in the test with MDA-MB-231 breast. For the same compound, the total growth inhibition concentration (TGI) was 22.3 µM in the test with HS 578T breast; 19.6 µM in the test with DU-145 prostate; above 100 µM with BT-549 breast; above 100 µM with NCI/ADR-RES ovarian; above 100 µM in the test with T-47D breast; above 100 µM in the test on MDA-MB-231 breast.

Consider `COc1cccc2c1C1=CC(=O)CCC1C(C)(C)O2` (stereo unspecified), for which the total growth inhibition concentration (TGI) in the test on LXFL 529 NSCLC, with HOP-18 NSCLC and in the test on M19-MEL melanoma was above 100 µM each time.

Take `CC1(C)C(=O)/C(=C\c2ccco2)C[C@]2(C)[C@H]3CC=C4[C@@H]5C[C@](C)(C(=O)O)CC[C@]5(C)CC[C@@]4(C)[C@]3(C)CC[C@@H]12`: the GI50 in the test with HS 578T breast was 18.4 µM; in the test on DU-145 prostate, 9.87 µM; in the test on BT-549 breast, 9.46 µM; in the test with NCI/ADR-RES ovarian it was 10 µM; in the test on T-47D breast, 5.66 µM; in the test on MDA-MB-231 breast, 14.1 µM. Further, the concentration for total growth inhibition (TGI) with HS 578T breast was above 100 µM; in the test with DU-145 prostate, 24.2 µM; with BT-549 breast, 25.4 µM; with NCI/ADR-RES ovarian, 29.2 µM; in the test on T-47D breast, 35.1 µM; with MDA-MB-231 breast it was 31.6 µM.

`O=Nc1c2cccnc2n2nnc3ccc(Cl)cc3c12`: the GI50 was 2.84 µM in the test on HS 578T breast; 0.893 µM in the test on DU-145 prostate; 3.57 µM with BT-549 breast; 1.29 µM in the test on NCI/ADR-RES ovarian; 0.412 µM with T-47D breast; 1.41 µM with MDA-MB-231 breast. The total growth inhibition concentration (TGI) was found to be 9.89 µM in the test with HS 578T breast; 2.93 µM with DU-145 prostate; 12.3 µM in the test on BT-549 breast; 7.84 µM with NCI/ADR-RES ovarian; 1.7 µM in the test on T-47D breast; 7.76 µM in the test with MDA-MB-231 breast.

For `Nc1ncnc2c1ncn2C1OC(C(=O)O)C(O)C1O` (stereo unspecified), the TGI with HS 578T breast, in the test on DU-145 prostate, in the test on BT-549 breast, with NCI/ADR-RES ovarian, in the test on T-47D breast and with MDA-MB-231 breast was above 100 µM throughout.

`O=C1/C(=C\c2cccs2)Oc2ccccc21`: the TGI in the test with HS 578T breast was above 100 µM; in the test with DU-145 prostate, above 100 µM; with BT-549 breast, above 100 µM; with NCI/ADR-RES ovarian, above 100 µM; in the test on T-47D breast, 10.8 µM; in the test with MDA-MB-231 breast, above 100 µM.

Consider `O=C1OCC2=Nc3cccc4cccc(c34)N12`, for which the TGI in the test on HS 578T breast, in the test on DU-145 prostate, in the test on BT-549 breast, in the test on NCI/ADR-RES ovarian, in the test on T-47D breast and in the test with MDA-MB-231 breast was above 100 µM each time.

Turning to `CCOC(=O)/C(C1=CC(=O)C(=O)c2ccccc21)=C(/C)NCc1ccccc1`, the GI50 in the test with HS 578T breast was 2.54 µM; in the test on DU-145 prostate it was 1.79 µM; in the test with BT-549 breast, 3.29 µM; in the test on NCI/ADR-RES ovarian, 2.02 µM; in the test on T-47D breast, 2.27 µM; in the test with MDA-MB-231 breast, 1.37 µM. The TGI is 6.96 µM in the test on HS 578T breast; 3.32 µM in the test on DU-145 prostate; 6.18 µM in the test with BT-549 breast; 5.08 µM with NCI/ADR-RES ovarian; above 100 µM in the test with T-47D breast; 3.28 µM in the test with MDA-MB-231 breast.

`O=C(/C=C/c1ccc([N+](=O)[O-])o1)NNC(=O)c1cc2ccccc2cc1O`: the GI50 with HS 578T breast was 6.21 µM; with DU-145 prostate, 0.998 µM; in the test on BT-549 breast it was 1.49 µM; with NCI/ADR-RES ovarian it was 1.48 µM; in the test on T-47D breast it was 1.51 µM; in the test with MDA-MB-231 breast it was 2.43 µM. Further, the total growth inhibition concentration (TGI) was above 100 µM in the test on HS 578T breast; 4.3 µM with DU-145 prostate; 5.74 µM in the test with BT-549 breast; 10.6 µM in the test on NCI/ADR-RES ovarian; 5.77 µM in the test with T-47D breast; above 100 µM with MDA-MB-231 breast.

As for `COc1cc(C(C#N)NNC(=O)c2ccccc2O)ccc1O` (stereo unspecified), the figures for the concentration for total growth inhibition (TGI) in the test on LXFL 529 NSCLC, with HOP-18 NSCLC and in the test on M19-MEL melanoma were above 100 µM, 97.9 µM and above 100 µM, respectively.

Consider `O=C1Cc2c(-c3ccccc3)cc(-c3cccc(Cl)c3)nc2-c2ccccc2N1`, for which the concentration for total growth inhibition (TGI) with HS 578T breast is 9.85 µM; in the test with DU-145 prostate, 11.8 µM; in the test on BT-549 breast, 22.1 µM; with NCI/ADR-RES ovarian, 7.46 µM; in the test with T-47D breast, 6.01 µM; with MDA-MB-231 breast, 5.49 µM.

Take `COc1ccc2c(C3(O)CCNCC3)c[nH]c2c1`: the TGI in the test with LXFL 529 NSCLC, in the test with HOP-18 NSCLC and with M19-MEL melanoma was above 100 µM throughout.

As for `C=C(CNCCO)[C@@H]1CC[C@]2(CO)CC[C@]3(C)[C@H](CC[C@@H]4[C@@]5(C)CCC(NCCc6ccc(O)cc6)C(C)(C)[C@@H]5CC[C@]43C)[C@@H]12` (stereo partly specified), the GI50 in the test on HS 578T breast is 1.49 µM; with DU-145 prostate, 1.6 µM; with BT-549 breast, 1.55 µM; in the test with NCI/ADR-RES ovarian, 2.18 µM; with T-47D breast it was 1.74 µM; in the test with MDA-MB-231 breast, 0.854 µM. Moreover, the TGI with HS 578T breast is 3.7 µM; in the test on DU-145 prostate, 3.03 µM; in the test with BT-549 breast, 3.23 µM; with NCI/ADR-RES ovarian, 5.1 µM; in the test with T-47D breast, 3.55 µM; with MDA-MB-231 breast, 2.17 µM.

Take `OC1CCC(C2C3CCCCC3C3CCCCC3C2C2CCC(O)CC2)CC1` (stereo unspecified): the TGI was above 100 µM in the test with HS 578T breast; above 100 µM in the test on DU-145 prostate; 8.87 µM in the test with BT-549 breast; above 100 µM with NCI/ADR-RES ovarian; 11 µM with T-47D breast; 9.66 µM in the test with MDA-MB-231 breast.
